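Compound exposure: 48 hours, 5 concentrations, 96-well plates. TGI denotes the concentration required for complete inhibition of growth.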
Key:
Experiment in all cases: NCI-60 cell line screen, 48 h
NCI-H522 lung = tested on: NCI-H522 lung
COLO 205 colon = tested on: COLO 205 colon
HCC-2998 colon = tested on: HCC-2998 colon
DU-145 prostate = tested on: DU-145 prostate
OVCAR-3 ovarian = tested on: OVCAR-3 ovarian
TK-10 renal = tested on: TK-10 renal
HL-60(TB) leukemia = tested on: HL-60(TB) leukemia
MCF7 breast = tested on: MCF7 breast
NCI/ADR-RES ovarian = tested on: NCI/ADR-RES ovarian
OVCAR-8 ovarian = tested on: OVCAR-8 ovarian
786-0 renal = tested on: 786-0 renal
MDA-MB-231 breast = tested on: MDA-MB-231 breast
UACC-62 melanoma = tested on: UACC-62 melanoma
IGROV1 ovarian = tested on: IGROV1 ovarian
SK-MEL-5 melanoma = tested on: SK-MEL-5 melanoma
RXF 393 renal = tested on: RXF 393 renal
RPMI-8226 leukemia = tested on: RPMI-8226 leukemia
SF-539 CNS = tested on: SF-539 CNS
A549 NSCLC = tested on: A549 NSCLC
OVCAR-4 ovarian = tested on: OVCAR-4 ovarian

SMILES | TGI (NCI-H522 lung) [µM] | TGI (COLO 205 colon) [µM] | TGI (HCC-2998 colon) [µM] | TGI (DU-145 prostate) [µM] | TGI (OVCAR-3 ovarian) [µM] | TGI (TK-10 renal) [µM] | TGI (HL-60(TB) leukemia) [µM] | TGI (MCF7 breast) [µM] | TGI (NCI/ADR-RES ovarian) [µM] | TGI (OVCAR-8 ovarian) [µM] | TGI (786-0 renal) [µM] | TGI (MDA-MB-231 breast) [µM] | TGI (UACC-62 melanoma) [µM] | TGI (IGROV1 ovarian) [µM] | TGI (SK-MEL-5 melanoma) [µM] | TGI (RXF 393 renal) [µM] | TGI (RPMI-8226 leukemia) [µM] | TGI (SF-539 CNS) [µM] | TGI (A549 NSCLC) [µM] | TGI (OVCAR-4 ovarian) [µM]
O=C1NCC(CSc2nc3cc(C4CCCc5c4[nH]c4ccccc54)ccc3o2)N1 (stereo not given) | > 100 | > 100 | > 100 | > 100 | > 100 | > 100 | > 100 | > 100 | > 100 | 88.1 | > 100 | > 100 | > 100 | > 100 | > 100 | > 100 | > 100 | > 100 | > 100 | > 100
Cc1ccc([N+](=O)[O-])cc1S(=O)(=O)Nc1ccc(C2=NOC(c3ccco3)C2)cc1 (stereo not given) | 32.7 | 80.9 | 31.9 | 39.3 | 30.7 | > 100 | 54.7 | 35.5 | 52.6 | > 100 | 34.9 | 33.1 | 27.1 | 84.4 | 27.7 | 23.3 | 96.8 | 68.3 | 59.7 | 32.7
CC(CC[C@@H](O)C(C)(C)O)C1[C@@H](O)CC2(C)C3CC(O)C4C(C)(C)[C@@H](OC5OC(CO)C(O)C(O)C5O)CC[C@@]45C[C@@]35CC[C@]12C (stereo not given in full) | > 10 | > 10 | > 10 | > 10 | > 10 | > 10 | > 10 | > 10 | > 10 | > 10 | > 10 | > 10 | > 10 | > 10 | > 10 | > 10 | > 10 | > 10 | > 10 | > 10
Cc1ccc(C2=Nn3c(nc4sc(C)c(C)c4c3=O)SC2)cc1 | > 100 | > 100 | > 100 | > 100 | > 100 | 85.3 | > 100 | > 100 | > 100 | > 100 | > 100 | > 100 | > 100 | > 100 | > 100 | > 100 | > 100 | > 100 | > 100 | > 100
Fc1ccc(C(OCCN2CCN(CCCCl)CC2)c2ccc(F)cc2)cc1 | 36.8 | 32.7 | 42.5 | 73.7 | 74.9 | > 100 | 25.6 | 41.1 | 70.8 | 91 | 94.6 | 75.5 | 40.7 | 86.4 | 32.4 | 44.4 | 49.5 | 34.6 | > 100 | 81.5
CC(=O)C1(Cc2cccc3ccccc23)S(=O)(=O)OCCOS1(=O)=O | 47.7 | 30.8 | 31.6 | 42.2 | 36.4 | 39.6 | 41.4 | 39.7 | 61.2 | 55.3 | 44 | 29.6 | 31.9 | 15.1 | 24.6 | 26.7 | 47.2 | 37.8 |  | 75.9
c1ccc(-c2nnc(-c3ccccn3)c3c2C[C@@H]2C[C@@H]4Cc5c(-c6ccccn6)nnc(-c6ccccn6)c5[C@@H]4[C@H]32)nc1 | > 100 | > 100 | > 100 | > 100 | > 100 | > 100 | 58.8 | > 100 | > 100 | > 100 | > 100 | > 100 | > 100 | > 100 | > 100 | > 100 | > 100 | > 100 | > 100 | > 100
CN(C)c1ccc(/C=C/C(=O)CC(=O)/C=C/c2ccc(N(C)C)cc2)cc1 | > 100 | > 100 | > 100 | > 100 | > 100 | > 100 | > 100 | > 100 | > 100 | > 100 | > 100 | > 100 | > 100 | > 100 | > 100 | > 100 | > 100 | > 100 | > 100 | > 100
CC1(C)C2C=C(CCN3CCOCC3)CC1C2 (stereo not given) | > 100 | > 100 | > 100 | > 100 | > 100 | > 100 | > 100 | > 100 | > 100 | > 100 | > 100 | > 100 | > 100 | > 100 | > 100 | > 100 | > 100 | > 100 | > 100 | > 100
O=c1c2ccccc2nc(-c2cc3c(cc2Cl)Sc2nccn2S3(=O)=O)n1-c1ccccc1 | > 100 | > 100 | 31 | 51.8 | 29.4 | 49.9 | 15.5 | 27.5 | 46.8 | 44 | 94.6 | 38.2 | 71.7 | > 100 | > 100 | 36 | 48.5 | 40.5 | > 100 | 44.8
CCN1CCC(O)(c2ccc(Oc3ccccc3)cc2)C(C(=O)c2ccc(Oc3ccccc3)cc2)C1 (stereo not given) | 43.9 | 30 | 19.6 | 27.5 | 31.9 | 27.3 | 14.1 | 19.5 | 35.1 | 38.6 | 18.7 | 30.2 | 25.9 | 33 | 25.7 | 53.4 | 5.63 | 23.4 | 27.5 | 25.3
COc1ccc(CCCCl)c(C2=NCCc3cc(OC)c(OC)cc32)c1 | > 100 | 68.9 | > 100 | > 100 | > 100 | > 100 | > 100 | > 100 | > 100 | > 100 | > 100 | > 100 | > 100 | > 100 | 59.4 | > 100 | 28.5 | > 100 | > 100 | > 100
O=NN1C(c2ccccc2)CC(=NO)CC1c1ccccc1 (stereo not given) | > 100 | > 100 | > 100 | > 100 | > 100 | > 100 | > 100 | > 100 | > 100 | > 100 | > 100 | > 100 | > 100 | > 100 | > 100 | > 100 | > 100 | > 100 | > 100 | > 100
Cc1ccc2nc3c(=O)[nH]c(=O)nc-3n(C)c2c1C | > 100 | > 100 | > 100 | > 100 | > 100 | > 100 | > 100 | > 100 | > 100 | > 100 | > 100 | > 100 | > 100 | > 100 | > 100 | > 100 | > 100 | > 100 | > 100 | > 100
O=C1C(N2CCN(c3ccccn3)CC2)=C(Cl)C(=O)c2ncccc21 | 1.03 | 3.49 | > 6.52 | > 10 | 3.95 | > 6.41 | 0.906 | 3.64 | > 10 | > 6.1 | 3.21 | > 7.14 | > 6.76 | > 10 | 3.27 | 3.56 | 1.87 | > 10 | > 10 | 1.95
CC[C@@]1(O)C(=O)OCc2c1cc1n(c2=O)Cc2c-1nc1ccccc1c2/C=N\NC(=O)C(N)CO (stereo not given in full) | > 42.2 | > 100 | > 100 | > 100 | > 100 | > 100 | > 21 | 21.3 | 9.2 | 39.6 | 13 | > 100 | 0.419 | > 100 | 2.55 | 7.73 | > 73.2 | 0.763 | > 100 | > 100
COC(=O)C1=C(C)NC(C)=C(C(=O)OC)C1c1ccccc1NO | > 100 | > 100 | > 100 | > 100 | > 100 | > 100 | > 100 | > 100 | > 100 | > 100 | > 100 | > 100 | > 100 | > 100 | > 100 | > 100 | > 100 | > 100 | > 100 | > 100
O=C(c1ccccc1)n1c(Cc2ccccc2)nc2cc(C34CC5CC(CC(C5)C3)C4)ccc21 | > 100 | 58.2 | > 100 | > 100 |  | > 100 | > 100 | 90 | > 100 | > 100 | > 100 | > 100 | > 100 | > 100 | 56.5 | > 100 | > 100 |  | > 100 | > 100
COC(=O)[C@H](Cc1ccccc1)NP(=O)(OCCC#N)OCC1OC(n2cc(C)c(=O)[nH]c2=O)CC1N=[N+]=[N-] (stereo not given in full) | > 100 | > 100 | > 100 | > 100 |  | > 100 | > 100 | > 100 | > 100 | > 100 | > 100 | > 100 | > 100 | > 100 | > 100 | > 100 | > 100 |  | > 100 | > 100
Cc1cc2c(cc1Cl)SC(NNC(=O)c1ccco1)=NS2(=O)=O | > 10 | > 10 | > 10 | > 10 | > 10 | > 10 | > 10 | > 10 | > 10 | > 10 | > 10 | > 10 | > 10 | > 10 | > 10 | > 10 | > 10 | > 10 | > 10 | > 10
COc1ccc(/C=C2\NC(=S)N(/C=C3\C(=O)Oc4ccccc4C3=O)C2=O)cc1OC | > 100 | > 100 | > 100 | > 100 | > 100 | > 100 | > 100 | > 100 | > 100 | > 100 | > 100 | > 100 | > 100 | > 100 | > 100 | > 100 | > 100 | > 100 | > 100 | > 100
CC[C@H](CCCC[C@H]1CC[C@@H]2CC(=O)C[C@H]12)OC | > 100 | > 100 | > 100 | > 100 | > 100 | > 100 | 67.8 | > 100 | > 100 | > 100 | > 100 | > 100 | > 100 | > 100 | 93 | > 100 | > 100 | > 100 | > 100 | > 100
Cn1c(=O)c2c(nc3n(CCCCl)c(=O)ccn23)n(C)c1=O | > 100 | > 100 | > 100 | > 100 | > 100 | > 100 | > 100 | > 100 | > 100 | > 100 | > 100 | > 100 | > 100 | > 100 | > 100 | > 100 | > 100 | > 100 | > 100 | > 100

— PubChem BioAssay (NCI)
